Values quoted from earlier work as cited in patent US7485658B2, “N-substituted pyrazolyl-amidyl-benzimidazolyl c-Kit inhibitors” (OSI Pharmaceuticals, Inc., priority 2003, dated 2009).
Where a name gives a salt, the structure may show the parent alone.

Assays:
[1] = system: MO7e human leukemia cells
[2] = system: MO7e human leukemia cells; remark: listed apart in the source

Cc1ccc(NC(=O)c2ccc(CN3CCN(C)CC3)cc2)cc1Nc1nccc(-c2cccnc2)n1 [Gleevec, imatinib mesylate]
GM-CSF stimulated growth of MO7e cells [1]: not affected
Kit ligand-stimulated growth of MO7e cells ([2]; Kit ligand stimulated): inhibited
apoptosis in MO7e cells ([2]; Kit ligand stimulated conditions): induces apoptosis
